{"source": "paper PMC6030077", "about": "“Dual role of HDAC10 in lysosomal exocytosis and DNA repair promotes neuroblastoma chemoresistance” (Scientific Reports, 2018)", "key": {"[1]": {"biological_target": "T1, HDAC10 (Homo sapiens, UniProt Q969S8)", "T1 construct": "NanoLuc®-HDAC10 FL Fusion Vector; host or cells: HeLa cells, stably transfected", "T1 sequence (Q969S8 1-669)": "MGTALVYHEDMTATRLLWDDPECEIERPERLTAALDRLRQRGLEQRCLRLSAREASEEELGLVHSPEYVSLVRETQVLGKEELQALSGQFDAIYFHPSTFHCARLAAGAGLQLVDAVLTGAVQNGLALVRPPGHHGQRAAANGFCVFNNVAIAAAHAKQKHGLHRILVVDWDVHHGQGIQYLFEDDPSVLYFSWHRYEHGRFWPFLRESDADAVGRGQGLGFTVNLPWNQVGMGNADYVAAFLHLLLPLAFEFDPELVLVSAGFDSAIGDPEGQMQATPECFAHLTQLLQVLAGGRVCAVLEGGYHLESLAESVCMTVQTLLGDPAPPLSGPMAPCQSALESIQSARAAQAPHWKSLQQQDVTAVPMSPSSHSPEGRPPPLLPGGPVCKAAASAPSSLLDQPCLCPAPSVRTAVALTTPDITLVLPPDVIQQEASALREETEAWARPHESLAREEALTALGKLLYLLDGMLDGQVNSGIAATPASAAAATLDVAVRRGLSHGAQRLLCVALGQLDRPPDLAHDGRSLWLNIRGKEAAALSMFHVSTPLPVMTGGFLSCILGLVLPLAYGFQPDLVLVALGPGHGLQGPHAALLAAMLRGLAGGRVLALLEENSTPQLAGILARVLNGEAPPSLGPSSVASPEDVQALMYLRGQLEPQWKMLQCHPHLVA", "assay": "In-cell target engagement (NanoBRET) assay, NanoLuc-HDAC10", "assay_type": "binding", "from_the_text": "We next investigated if accumulation of lysosomes was also affected by inhibition of HDAC6 and HDAC10, respectively. […] Since no bona fide downstream target protein of HDAC10 has been described to date, we performed an in-cell target engagement (NanoBRET) assay that measures competitive displacement of a fluorescently-labeled tracer from NanoLuc® Luciferase coupled HDAC10 enzyme. […] To exclude that lysosomal accumulation after treatment with HDAC6/10 inhibitors was caused by off-target inhibition of class I HDACs, we treated BE(2)-C cells with 1 mM class I HDAC inhibitor valproic acid (VPA).\n(§1) HeLa cells, stabily transfected with NanoBRET plasmids NanoLuc®-HDAC6 FL Fusion Vector and NanoLuc®-HDAC10 FL Fusion Vector (Promega, Madison, WI, USA) were seeded at 20.000 cells/well in white 96 well plates. Without further incubation, tracer (0.3 µM) and drugs were added in separate steps and plates were placed in a tissue culture incubator for 2 h. For NanoBRET quantification, plates were put at room temperature for 10 minutes. Nanoglow substrate, diluted in OptiMEM without phenol red, was added and measured within 10 minutes in an OPTIMA plate reader (460 nm emission for donor and 610LP filter for acceptor). The BRET signal was calculated by the ratio of acceptor signal and donor signal."}, "[2]": {"biological_target": "T2, HDAC6 (Homo sapiens, UniProt Q9UBN7)", "T2 sequence (Q9UBN7 1-1215)": "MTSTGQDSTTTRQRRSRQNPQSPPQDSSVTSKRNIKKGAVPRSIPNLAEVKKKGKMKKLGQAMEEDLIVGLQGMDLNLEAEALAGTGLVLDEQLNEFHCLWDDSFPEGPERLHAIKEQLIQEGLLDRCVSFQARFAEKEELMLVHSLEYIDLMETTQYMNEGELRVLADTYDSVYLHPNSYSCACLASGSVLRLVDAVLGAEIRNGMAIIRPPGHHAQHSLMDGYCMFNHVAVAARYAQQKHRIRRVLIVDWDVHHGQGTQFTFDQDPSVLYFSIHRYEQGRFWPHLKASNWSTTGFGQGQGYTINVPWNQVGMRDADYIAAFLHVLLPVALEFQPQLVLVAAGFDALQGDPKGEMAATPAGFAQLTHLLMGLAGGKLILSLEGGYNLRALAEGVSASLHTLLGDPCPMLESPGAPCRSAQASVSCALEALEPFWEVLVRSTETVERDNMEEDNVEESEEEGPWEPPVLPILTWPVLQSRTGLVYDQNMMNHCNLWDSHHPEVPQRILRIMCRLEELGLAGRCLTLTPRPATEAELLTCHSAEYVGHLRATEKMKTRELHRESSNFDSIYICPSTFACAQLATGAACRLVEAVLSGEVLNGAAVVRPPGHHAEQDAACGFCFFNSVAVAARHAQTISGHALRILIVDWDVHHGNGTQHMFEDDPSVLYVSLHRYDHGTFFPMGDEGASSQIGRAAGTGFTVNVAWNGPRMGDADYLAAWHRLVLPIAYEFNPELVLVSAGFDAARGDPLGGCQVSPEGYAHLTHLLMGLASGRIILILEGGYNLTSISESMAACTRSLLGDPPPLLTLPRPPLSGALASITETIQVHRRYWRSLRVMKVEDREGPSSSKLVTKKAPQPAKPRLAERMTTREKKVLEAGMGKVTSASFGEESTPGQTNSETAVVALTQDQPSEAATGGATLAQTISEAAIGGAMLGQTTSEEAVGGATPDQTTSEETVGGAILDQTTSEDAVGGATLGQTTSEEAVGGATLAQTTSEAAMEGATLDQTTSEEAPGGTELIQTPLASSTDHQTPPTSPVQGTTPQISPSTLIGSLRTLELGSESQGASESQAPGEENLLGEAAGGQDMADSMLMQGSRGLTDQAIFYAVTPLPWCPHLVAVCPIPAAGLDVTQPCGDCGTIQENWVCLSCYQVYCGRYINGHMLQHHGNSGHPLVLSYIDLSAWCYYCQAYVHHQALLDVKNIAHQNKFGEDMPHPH", "assay": "In-cell target engagement (NanoBRET) assay, NanoLuc-HDAC6", "assay_type": "binding", "conditions": "HeLa cells stably transfected with NanoLuc-HDAC6, 2 h", "description": "as §1"}, "[3]": {"test_system": "BE(2)-C cells", "assay": "Flow cytometric analysis of LysoTracker DND-99 staining (lysosomal accumulation)", "assay_type": "cell-based, human", "conditions": "24 h treatment", "description": "Six days after siRNA transfection or 24 h after treatment with HDAC or lysosomal inhibitors, cells were stained for 1 h with 50 nM LysoTracker® Red DND-99 in medium under standard cell culture conditions. Cells were washed with ice-cold RPMI w/o phenol-red and detached using Trypsin/EDTA for 3 minutes at 37 °C. Cells were centrifuged, resuspended in RPMI w/o phenol red and LysoTracker® Red fluorescence was quantified on a BD FACSCanto II platform using the PE filter setting."}, "[4]": {"test_system": "HDAC6", "assay": "Western blot analysis of tubulin K40 acetylation as a marker for HDAC6 inhibition", "assay_type": "cell-based, human", "conditions": "24 h treatment", "description": "Western blot analysis was performed as previously described. The following antibodies were used: anti-HDAC6 (sc-11420, Santa Cruz), anti-HDAC10 (H3413, Sigma), anti-acetylated histone H3 (06-911, Merck Millipore), anti-histone H3 (9715, Cell Signaling Technology, Cambridge UK), anti-LAMP-1 (H4A3, DHSB, Iowa City, IA, USA), anti-LAMP-2 (H4B4; Santa Cruz Biotechnology), anti-acetylated tubulin (6–11B-1; Sigma), anti-tubulin (2148, Cell Signaling Technology), anti P-glycoprotein (13978 S, Cell Signaling Technology) and anti-β-actin (clone AC-15; Sigma)."}, "[5]": {"test_system": "BE(2)-C cells", "assay": "Flow cytometric quantification of intracellular doxorubicin accumulation, BE(2)-C", "assay_type": "cell-based, human", "conditions": "100 ng/ml doxorubicin, 24 h co-treatment", "description": "For flow cytometric quantification of intracellular doxorubicin after HDAC6/10 inhibition, BE(2)-C, SK-N-AS, IMR-32, HAP1 wild type and HDAC10 knockout cells were seeded in 6-well dishes at a density of 1.5 ∗ 10^5 cells/well (BE(2)-C and SK-N-AS, HAP1) and 3 ∗ 10^5 cells/well (IMR-32). Cells were treated with 25 ng/ml, 50 ng/ml, 100 ng/ml or 1 µg/ml doxorubicin, respectively, for 3–48 h (see respective figure legend). Where indicated, cells were co-treated with HDAC6/10 or lysosomal inhibitors. In case of co-treatment with vacuolin-1, vacuolin-1 was directly added to cells under doxorubicin treatment 1 h or 24 h prior to analysis. Flow cytometric quantification of intracellular doxorubicin after HDAC6, HDAC10 or P-glycoprotein knockdown in BE(2)-C cells was performed 5 days (P-glycoprotein) or 6 days (HDAC6/10) after transfection with siRNA. To that end, cells were seeded 3–4 days after transfection into 6-well dishes at 1.5 ∗ 10^5 cells per well and treated with 100 ng/ml doxorubicin +/− HDAC6/10 and lysosomal inhibitors for the last 24 h. After doxorubicin treatment, BE(2)-C, SK-N-AS, IMR-32 and HAP1 cells were washed with ice-cold RPMI w/o phenol-red and detached using Trypsin/EDTA for 3 minutes at 37 °C. Cells were centrifuged, resuspended in RPMI w/o phenol red and doxorubicin fluorescence was quantified on a BD FACSCanto II platform using the PE filter setting."}}}
{"smiles": "CN1C(=O)C2CN(Cc3c2c2ccccc2n3Cc2ccc(C(=O)NO)cc2)C1=O", "note": "(stereo not shown) [Marbostat-100]", "values": [{"measurement": "concentrations at which HDAC10 is inhibited (NanoBRET)", "setting": "[1]", "value": "above 150 nM"}, {"measurement": "IC50", "setting": "[1]; HeLa cells stably transfected with NanoLuc-HDAC10, 2 h", "value": 564, "unit": "nM"}, {"measurement": "IC50", "setting": "[2]", "value": 2.21, "unit": "nM"}, {"measurement": "concentrations at which LysoTracker staining is increased", "setting": "[3]", "value": "above 1 µM"}, {"measurement": "EC50", "setting": "[3]; read-out: LysoTracker staining EC50", "value": 6.6, "unit": "µM"}, {"measurement": "concentrations inducing tubulin acetylation", "setting": "[4]", "value": "≥ 50", "unit": "nM"}, {"measurement": "concentrations at which intracellular doxorubicin levels are increased", "setting": "[5]", "value": "≥ 5", "unit": "µM"}]}
